Source: a melting point compilation (Tetko et al.)

Structure (SMILES) | melting point
Oc1ccccc1-c1ccn[nH]1 | 95 to 97 °C
NS(=O)(=O)Cc1ccc(F)cc1 | 122 to 124 °C
CC(C)(C)c1cnc(S)s1 | 115 to 117 °C
O=C(c1ccc(Cl)cc1)c1cccnc1 | 87 to 89 °C
CC(=O)c1ccc(-c2ccc(C=O)o2)cc1 | 133 to 135 °C
O=C(O)CCn1c(=O)oc2cc(Cl)ccc21 | 160 to 162 °C
N#CCCN1C(=O)c2ccccc2C1=O | 153 to 155 °C
CN(Cc1ccccc1)c1ccc([N+](=O)[O-])cn1 | 56 to 58 °C
Cc1nn(C)c2c1NC(=O)CS2 | 197 to 199 °C
Cc1ccc(S(=O)(=O)NC(CC(N)=O)C(=O)O)cc1C (configuration not stated) | 179 to 181 °C
O=C(O)CCCCc1ccc(I)cc1 | 109 to 111 °C
CCOc1ccc(S(=O)(=O)NCCC(=O)O)cc1 | 178 to 180 °C
O=C(c1ccc(O)cc1)N1CCc2sccc2C1 | 200 to 202 °C
Cc1ccccc1-n1c(C)cc(C=O)c1C | 71 to 73 °C
O=S(=O)(c1cccc(Br)c1)N1CCNCC1 | 97 to 101 °C
N#Cc1cccc2cnccc12 | 126 to 128 °C
N#Cc1ccc(Cl)cc1NCc1ccccc1 | 93 to 95 °C
CC(C)c1ccc(C=NO)cc1 | 64 to 66 °C
Nc1ccc(S(N)(=O)=O)cc1N | 145 to 154 °C
NS(=O)(=O)c1cn[nH]c1 | 200 to 202 °C
COC(=O)c1cc(Cl)c2cc(Cl)ccc2n1 | 157 to 159 °C
NC(Cn1ccccc1=O)=NO | 211 to 213 °C
COC(=O)c1cnc(Cl)c(S(=O)(=O)N2CCOCC2)c1 | 132 to 134 °C
NNC(=O)CCc1ccc(S(=O)(=O)N2CCOCC2)cc1 | 128 to 130 °C
CCc1c(-c2ccc(Br)cc2)n[nH]c1N | 94 to 96 °C
O=C(NCC1CCCCN1)c1ccccc1 (configuration not stated) | 109 to 111 °C

Structure (SMILES) | melting point
O=C(Nc1cnccn1)c1ccc(Br)cc1 | 195 to 197 °C
Cc1cccc(C)c1NC(=O)CN1CCNCC1 | 53 to 55 °C
Cc1nc(S)nc(C)c1CCC(=O)O | 154 to 156 °C
O=C(O)Cc1ccc(NC(=O)C2CC2)cc1 | 189 to 191 °C
CC(O)(C(=O)O)C1CC1 (configuration not stated) | 39 to 41 °C
N#CCCn1c(S)nc2ccccc21 | 154 to 158 °C
COC(=O)c1c(CC(=O)O)[nH]c(C(C)=O)c1C | 205 to 207 °C
CCCS(=O)(=O)Nc1ccc(N)cc1 | 111 to 113 °C
Nc1cccnc1Nc1ccccc1 | 135 to 137 °C
CC(C)(C)OC(=O)N1CCc2[nH]c(=O)c(S(C)(=O)=O)cc2C1 | 229 to 231 °C
O=C(O)c1cc2c([nH]1)CCC2 | 109 to 111 °C
Nc1nc2ccc(Oc3ccccc3)cc2s1 | 159 to 161 °C
O=C(O)Cc1c(F)cncc1Cl | 99 to 101 °C
CCOc1cc(CC#N)cc(Cl)c1OC(F)F | 79 to 81 °C
O=C(O)COc1ccccc1OCc1ccc(F)cc1 | 108 to 110 °C
O=C(O)c1nn(-c2ccccc2Cl)c2c1CCCC2 | 232 to 234 °C
O=C(O)CCC(=O)N1CCc2sccc2C1 | 130 to 132 °C
CC(C)c1nc(C(=O)O)cs1 | 56 to 58 °C
CC(Cl)C(=O)NC1CCCC(C)C1C (configuration not stated) | 163 to 165 °C
O=c1[nH]c2ccc([N+](=O)[O-])cc2o1 | 242 to 244 °C
Cn1ccnc1C(O)CCc1ccccc1 (configuration not stated) | 101 to 103 °C
CC1(C)SC[C@H](C(=O)O)NC1=O | 205 to 207 °C
Cc1ccc(S(N)(=O)=O)c(C)c1 | 139 to 141 °C
Cc1cc(C(=O)O)c(C(=O)O)s1 | 210 to 212 °C
CSc1ccc2c(c1)CCCC2=O | 74 to 76 °C
O=C(O)c1cc([N+](=O)[O-])cc(F)c1F | 132 to 134 °C

Structure (SMILES) | melting point
Cc1ccccc1NC(=O)CCl | 75 to 77 °C
Cc1ccc(O)c(C(=O)NO)c1 | 179 to 181 °C
O=C(O)c1cn(Cc2cccc(F)c2)nn1 | 189 to 191 °C
O=[N+]([O-])c1cncc(Br)c1 | 99 to 101 °C
CN(C)C(=O)c1ccc(O)cc1 | 156 to 158 °C
CS(=O)(=O)NCc1ccccn1 | 88 to 90 °C
c1ccc(-c2nnco2)cc1 | 35 to 37 °C
O=C(O)CCc1ccc2c(c1)CCO2 | 92 to 94 °C
NS(=O)(=O)c1ccc2c(c1)CC(C(=O)O)CO2 (configuration not stated) | 213 to 215 °C
NC(CC(=O)O)c1cccc(Cl)c1 (configuration not stated) | 227 to 229 °C
Cc1ccc(S(N)(=O)=O)cc1C(N)=O | 192 to 194 °C
O=C(CCl)Nc1cc2ccccc2cc1C(=O)O | 223 to 225 °C
O=C(O)CCC(=O)N1CCN(c2ncccn2)CC1 | 166 to 168 °C
NS(=O)(=O)c1ccc(NCC(=O)O)cc1 | 239 to 241 °C
O=C(O)CCCNS(=O)(=O)c1ccc2c(c1)CCCC2 | 130 to 132 °C
COC(=O)c1n[nH]c(C)c1Cl | 129 to 131 °C
Cc1ccc(-n2nc(C)c(C=O)c2Cl)cc1 | 135 to 137 °C
COc1ccccc1C(N)C(=O)O (configuration not stated) | 169 to 171 °C
Nc1ccc(-n2ccnn2)cc1 | 137 to 139 °C
O=C(O)Cn1ccc(C(F)(F)F)n1 | 58 to 64 °C
CCCCNc1nc2ccc(C)cc2s1 | 70 to 72 °C
CSc1ccc(CNc2ccc3[nH]c(C)nc3c2)cc1 | 172 to 174 °C
Nc1cc([N+](=O)[O-])c(F)cc1F | 98 to 100 °C
Nc1ccc(NC(=O)c2ccccc2)nc1 | 139 to 141 °C
CCCCn1c(=O)[nH]c(=O)c2c1nc(CCl)n2CC | 172 to 174 °C
CCCc1nn(-c2ccccc2F)c(Cl)c1C(=O)O | 169 to 171 °C

Structure (SMILES) | melting point
Cc1cc([N+](=O)[O-])ccc1NC(=O)CCl | 118 to 120 °C
O=C(O)c1ccc2c(c1)CC(c1ccccc1)OC2=O (configuration not stated) | 310 to 312 °C
Nc1ccc(Oc2ccc(F)cc2)cn1 | 74 to 76 °C
CCOC(=O)c1cnc2c(OC)ccc(OC)c2c1Cl | 87 to 89 °C
Cc1noc(C2(C)CCN(C(=O)OC(C)(C)C)CC2)n1 | 80 to 82 °C
COc1ccc(CCNC(=O)CC(=O)NCCc2ccc(OC)cc2)cc1 | 161 to 163 °C
CN(CC(N)=S)C(=O)OC(C)(C)C | 149 to 151 °C
CNS(=O)(=O)c1ccc2c(c1)CCN2 | 124 to 126 °C
NC(Cc1cccc2cccnc12)=NO | 172 to 174 °C
O=C(O)c1ccc(=O)n(-c2ccccc2)n1 | 208 to 210 °C
O=C(Nc1ccc(C(F)(F)F)cc1)OCC(F)(F)F | 102 to 104 °C
CC(=O)c1ccc(N2CCCC2)c(F)c1 | 36 to 38 °C
Cc1ccc(NC(=O)C2CSCN2)c(C)c1 (configuration not stated) | 89 to 91 °C
CCC1(c2cccc(Cl)c2)NC(=O)NC1=O (configuration not stated) | 159 to 161 °C
CC1CCN(C(=O)c2ccc(Cl)nc2)CC1 | 69 to 71 °C
O=c1cc[nH]c2ccc(Br)cc12 | 286 to 288 °C
S=c1[nH][nH]c(=NCCc2cccs2)s1 | 82 to 84 °C
Cc1ccc(C(N)C(=O)O)cc1 (configuration not stated) | 269 to 271 °C
COc1cc(C#N)ccc1OC(F)F | 47 to 51 °C
C1Cc2nnc(C3CCNCC3)n2C1 | 126 to 128 °C
O=C(O)c1cc(CO)on1 | 129 to 131 °C
O=C(O)C1(c2cccc(C(F)(F)F)c2)CCCCC1 | 144 to 146 °C
CCc1cc(Cl)nc(-c2ccncc2)n1 | 99 to 101 °C
Cc1ccccc1COc1c(C)cc(C=O)cc1C | 62 to 64 °C
